Assay results published in patent US8580709B2, “Plant growth regulation” (Syngenta Crop Protection, LLC, priority 2009, dated 2013).

Key:
Assay type in all cases: in vivo
Spring-barley Pasadena = test: Plant growth regulation on cereals, greenhouse spray, visual shoot growth reduction; details: 13 days after application, growth stage 30-32, vs untreated control
Procedure: (§1) Plants were grown under greenhouse conditions and sprayed at growth stage 30-32 (start of stem elongation) of cereal plants with a boom sprayer. Trinexapac-ethyl (treatment A) was applied as Moddus® ME250 formulation, and Prohexadione-Ca (treatment B) was applied as Viviful® WG10 formulation with a standard flat fan nozzle at 200 l/ha spray volume. 13 days after application the plant growth reduction (% GR) of the shoot (leaves and stem) was evaluated visually compared to the untreated control. The expected plant growth reduction was calculated according to Colby (Colby 1967, Weeds 15, 20-22) and compared to evaluation data of sprayed plants.

Spring-wheat Lona = test: as above; details: 13 days after application, growth stage 30-32, vs untreated control
Procedure: as §1

Winter-barley Hasso = test: as above; details: 13 days after application, growth stage 30-32, vs untreated control
Procedure: as §1

Winter-wheat Arina = test: as above; details: 13 days after application, growth stage 30-32, vs untreated control
Procedure: as §1

Corn ECO5133 = test: Plant growth regulation on corn, greenhouse spray, visual shoot growth reduction; details: 33 days after application, growth stage 13, vs untreated control
Procedure: as §1, with “Corn plants of 4 different varieties” for “Plants”, “13 (3 leaves unfolded)” for “30-32 (start of stem elongation) of cereal plants”, “Trinexapac-ethyl” for “Trinexapac-ethyl (treatment A)”, “Prohexadion-Ca” for “Prohexadione-Ca (treatment B)”, “WG 10” for “WG10”, “33” for “13”

Corn LG22.65 = test: as above; details: 33 days after application, growth stage 13, vs untreated control
Procedure: as §1, with “Corn plants of 4 different varieties” for “Plants”, “13 (3 leaves unfolded)” for “30-32 (start of stem elongation) of cereal plants”, “Trinexapac-ethyl” for “Trinexapac-ethyl (treatment A)”, “Prohexadion-Ca” for “Prohexadione-Ca (treatment B)”, “WG 10” for “WG10”, “33” for “13”

Corn Maeva = test: as above; details: 33 days after application, growth stage 13, vs untreated control
Procedure: as §1, with “Corn plants of 4 different varieties” for “Plants”, “13 (3 leaves unfolded)” for “30-32 (start of stem elongation) of cereal plants”, “Trinexapac-ethyl” for “Trinexapac-ethyl (treatment A)”, “Prohexadion-Ca” for “Prohexadione-Ca (treatment B)”, “WG 10” for “WG10”, “33” for “13”

Corn Ronaldinio = test: as above; details: 33 days after application, growth stage 13, vs untreated control
Procedure: as §1, with “Corn plants of 4 different varieties” for “Plants”, “13 (3 leaves unfolded)” for “30-32 (start of stem elongation) of cereal plants”, “Trinexapac-ethyl” for “Trinexapac-ethyl (treatment A)”, “Prohexadion-Ca” for “Prohexadione-Ca (treatment B)”, “WG 10” for “WG10”, “33” for “13”

| SMILES | % GR (plant growth reduction of the shoot) (Spring-barley Pasadena; 25 g a.i./ha) [%] | % GR (plant growth reduction of the shoot) (Spring-barley Pasadena; 50 g a.i./ha) [%] | % GR (plant growth reduction of the shoot) (Spring-wheat Lona; 25 g a.i./ha) [%] | % GR (plant growth reduction of the shoot) (Spring-wheat Lona; 50 g a.i./ha) [%] | % GR (plant growth reduction of the shoot) (Winter-barley Hasso; 25 g a.i./ha) [%] | % GR (plant growth reduction of the shoot) (Winter-barley Hasso; 50 g a.i./ha) [%] | % GR (plant growth reduction of the shoot) (Winter-wheat Arina; 25 g a.i./ha) [%] | % GR (plant growth reduction of the shoot) (Winter-wheat Arina; 50 g a.i./ha) [%] | % GR (plant growth reduction of the shoot) (Corn ECO5133; 25 g a.i./ha) [%] | % GR (plant growth reduction of the shoot) (Corn ECO5133; 50 g a.i./ha) [%] | % GR (plant growth reduction of the shoot) (Corn ECO5133; 100 g a.i./ha) [%] | % GR (plant growth reduction of the shoot) (Corn LG22.65; 25 g a.i./ha) [%] | % GR (plant growth reduction of the shoot) (Corn LG22.65; 50 g a.i./ha) [%] | % GR (plant growth reduction of the shoot) (Corn LG22.65; 100 g a.i./ha) [%] | % GR (plant growth reduction of the shoot) (Corn Maeva; 25 g a.i./ha) [%] | % GR (plant growth reduction of the shoot) (Corn Maeva; 50 g a.i./ha) [%] | % GR (plant growth reduction of the shoot) (Corn Maeva; 100 g a.i./ha) [%] | % GR (plant growth reduction of the shoot) (Corn Ronaldinio; 25 g a.i./ha) [%] | % GR (plant growth reduction of the shoot) (Corn Ronaldinio; 50 g a.i./ha) [%] | % GR (plant growth reduction of the shoot) (Corn Ronaldinio; 100 g a.i./ha) [%] |
| --- | --- | --- | --- | --- | --- | --- | --- | --- | --- | --- | --- | --- | --- | --- | --- | --- | --- | --- | --- | --- |
| CCOC(=O)C1CC(=O)C(=C(O)C2CC2)C(=O)C1 (stereo not shown) [A, Trinexapac-ethyl] | 0.0 | 0.0 | 1.7 | 3.3 | 0.0 | 5.0 | 0.0 | 5.0 | 1.7 | 1.7 | 6.7 | 0.0 | 3.3 | 11.7 | 1.7 | 3.3 | 6.7 | 0.0 | 0.0 | 3.3 |
| CCC(=O)C1=C([O-])CC(C(=O)[O-])CC1=O.[Ca+2] (stereo not shown) [B, Prohexadione-Ca] | 0.0 | 1.7 | 0.0 | 3.3 | 0.0 | 5.0 | 0.0 | 3.3 | 0.0 | 0.0 | 0.0 | 0.0 | 1.7 | 13.3 | 1.7 | 5.0 | 18.3 | 0.0 | 0.0 | 1.7 |
